Turning to `CCOC(=O)CCN(CNC(=O)OC(C)(C)C)C(=O)Cn1cc(C)c(=O)[nH]c1=O`, the melting point – broadly, the temperature of the solid-liquid transition – lay within 174 to 175 °C.

In turn, `COc1cc(-c2ccccc2)c(OCC(=O)O)c(-c2ccccc2)c1` yielded a melting point of 143 to 145 °C.

The compound `CCc1cc(NC(=O)c2nnn(Cc3ccc(OC)cc3)n2)c(O)c(C(C)=O)c1` had a melting point of 159 to 160 °C.

Compound `CC(C)(C)n1ncc(Cl)c(NCCN2CCN(c3cccc4c3OCCO4)CC2)c1=O` gave a melting point of 177 to 178 °C.

In turn, `CCCCCCCCCCCCCCCCCCNC(=O)OCC(CN)NC(=O)OC` (centres undefined) returned a melting point of 128 to 129 °C.

Take `CCOC(=O)C1(CCl)Nc2cc(C)cc(C)c2C(=O)N1c1ccccc1Cl` (centres undefined): the melting point was in the range of 94 to 95 °C.

As to `CC(C)(C)OC(=O)C1=C(c2ccccc2)C(c2ccccc2)OC1=O` (centres undefined), the melting point is 109 to 111 °C.

With `COC(=O)N(C1c2ccccc2-c2ccccc21)[C@H]1[C@H](C(=O)O)C[C@H]2C[C@@H]1C2(C)C`, the melting point is 155 to 157 °C.

Consider `COC(=O)c1cc2cc(-c3ccc4ccc(Cl)cc4n3)ccc2o1`, for which the melting point lay within 178 to 181 °C.

`COC(=O)[C@H]1[C@H](C(=O)OC)C1(Br)C=O` (some centres undefined): the melting point came out at 52 °C.

Consider `Cc1nnc(-c2ccc3ncn(-c4ccc(OC(F)F)cc4)c3c2)o1`, for which the melting point lay in the range of 154 to 155 °C.

With `OC(c1ccc(F)cc1)C1(n2cncn2)CC1` (centres undefined), the melting point lay in the range of 104 to 106 °C.

`NCCc1c[nH]c2ccc(NC(=O)Nc3ccccc3)cc12` gave a melting point of 192 to 194 °C.

`CCN1CC(NC(=O)c2cc(Cl)c(N)cc2OC)CN1CC`: the melting point fell in the range of 117 to 119 °C.

Consider `COc1cc2oc(=O)c(CCOS(C)(=O)=O)c(C)c2cc1OC`, for which the melting point lay within 188 to 191 °C.

As to `COc1ccccc1Oc1c(NS(=O)(=O)c2ccc(C(C)(C)C)cc2)nc(-c2ncccn2)nc1OCCOc1ccc(C(C)=O)cc1`, the melting point was 169 to 172 °C.

`O=[N+]([O-])C=C1SCCN1Cc1ccco1` showed a melting point of 190 to 192 °C.

In turn, `CCOC(=O)C(C)O/N=C(\C(=O)O)c1csc(N)n1` (centres undefined) returned a melting point of 166 °C.

In the case of `CCOC(=O)C1(C(=O)OCC)CC(c2ccc(Cl)cc2[N+](=O)[O-])=CN1C(C)=O`, the melting point fell in the range of 90 to 95 °C.

The compound `NS(=O)(=O)c1cc(Br)c2c(c1)S(=O)(=O)NC(C1CCCCC1)N2` (centres undefined) gave a melting point of 254 to 258 °C.

Take `Cc1ccc(C(=O)NC(CF)NC(=S)Nc2cccc([N+](=O)[O-])c2)cc1` (centres undefined): the melting point is 148 to 155 °C.

Take `CC(C)(C)CC(=O)NCc1ccc2c(c1)C(=O)N(C1CCC(=O)NC1=O)C2=O` (centres undefined): the melting point fell in the range of 232 to 234 °C.

In the case of `CC(CCc1ccc(F)cc1)NCc1c(CO)ccc(O)c1CO` (centres undefined), the melting point is 101 to 103 °C.

Compound `FC(F)(F)c1ccc(-c2cc(C(F)(F)F)n3ncc(-c4ccccn4)c3n2)cc1` registered a melting point of 202 °C.

The compound `N#Cc1ccc(NC(=O)OC2CN3CCC2CC3)cc1` (centres undefined) yielded a melting point of 180 to 182 °C.

`COc1c(C2CCN(CCCCNC(=O)c3c(C)nc(-c4ccc(Cl)cc4)n3C)CC2)ccc2c1CCCC2` returned a melting point of 150 °C.

As for `CCCCOc1c(CNC(=O)OC(C)(C)C)n(CC(C)(C)C)c(=O)c2ccc(F)cc12`, the melting point lay within 168 to 169 °C.

`CCOC(C)n1cnc(-c2ccc(F)cc2)c1-c1ccc(F)cc1` (centres undefined) had a melting point of 105 to 107 °C.

The compound `CN1CCN(C2=Nc3ccncc3Oc3ccccc32)CC1` yielded a melting point of 124 to 125 °C.

As for `CCC(=O)N(CC)c1cccc(C(=O)C=CN(C)C)c1`, the melting point lay within 105 to 107 °C.

Take `COc1cccc(C(=O)N(C)Cc2cccc(-c3ccc(CC4SC(=O)NC4=O)cc3)c2)c1` (centres undefined): the melting point is 173 °C.

`COc1ccc(C2(CCN3CCC(C(=O)c4nc5ccccc5s4)CC3)CCN(C(=O)c3ccccc3)C2)cc1OC` (centres undefined) gave a melting point of 74 to 76 °C.

As to `O=C(NCCc1ccccc1Cl)c1c(Cl)ccc2nc(N3CC[C@H](NCCO)C3)ccc12`, the melting point fell in the range of 170 to 172 °C.

Regarding `CC1(C=O)CC1(c1cccc(F)c1)c1cccc(F)c1` (centres undefined), the melting point lay in the range of 92 to 93 °C.

Regarding `Oc1ccc2c(c1)CCc1c-2cc2ccc(O)cc2c1C1CCCC1`, the melting point is 233 to 235 °C.

`CC(C)(C)OC(=O)N[C@H]1CC[C@H](ON2C(=O)c3ccccc3C2=O)CC1`: the melting point was in the range of 134 to 135 °C.

The compound `COC1(C)COC(C)(OC)CO1` (centres undefined) came in with a melting point of 126 to 128 °C.

On to `Oc1ccc(CC2CO2)cc1` (racemic), for which the melting point fell in the range of 54 to 57 °C.

As for `CCOc1ncc(SC)cc1C(=O)O`, the melting point was 78 to 92 °C.

`C#CCOc1cc(N2C(=O)C3CCCCN3C2C(=O)OCC)c(F)cc1Cl` (centres undefined) showed a melting point of 72 to 75 °C.

On to `O=C(O)c1ccccc1COc1cccc(Cl)c1`, for which the melting point lay within 154 to 155 °C.

The compound `CC(=O)c1ccc(CNC(=O)OC(C)(C)C)cc1` yielded a melting point of 73 to 75 °C.

Take `CCc1cnc(N2CCC(c3ccc4[nH]c(-c5ccc(S(C)(=O)=O)cc5F)nc4c3)CC2)nc1`: the melting point was in the range of 220 to 224 °C.

In turn, `CCCCCCCCC(C)OC(=O)NC(C)(C=O)CCc1c[nH]c2ccccc12` (centres undefined) showed a melting point of 178 to 179 °C.

For the compound `C=CCON=C(CC)C1=C(O)CC(c2ccc(NS(C)(=O)=O)cc2)CC1=O` (centres undefined), the melting point lay in the range of 134 to 135 °C.

Take `CS(=O)(=O)Nc1ccc(C(=O)NC(=O)N2CCC(Oc3ccc(Cl)cc3)CC2)cc1`: the melting point is 79 °C.

On to `N=c1sc2cc(OC(F)(F)F)ccc2n1CCS(=O)c1ncccn1` (centres undefined), for which the melting point was 120 °C.

In turn, `COc1ccccc1CN[C@H]1CCCN(CCCCCCc2ccccc2)[C@H]1c1ccccc1` (relative stereo) yielded a melting point of 48 to 53 °C.

In turn, `O=C1c2c(F)c(F)c(F)c(F)c2C(=O)N1c1ccc(F)cc1F` came in with a melting point of 145 to 146 °C.

Regarding `BrCc1ccc(CCc2ccccc2)cc1`, the melting point lay within 52 to 53 °C.

Compound `CC#CC(C)(C)NC(=O)C(CC)Oc1cc(C#N)cc(OC)c1` (centres undefined) displayed a melting point of 97 to 98 °C.

Take `Cc1cc(-c2ccc(Cl)cc2)nn2c(=O)[nH]nc12`: the melting point fell in the range of 278 to 280 °C.

As to `BrCC[Si](CCBr)(CCBr)CCBr`, the melting point is 90 to 91 °C.

For `COc1ccc(S(N)(=O)=O)cc1C(O)CCl` (centres undefined), the melting point was 112 °C.

`O=C(Nc1ccccc1Oc1cc(Cl)cc(Cl)c1)C1CCNCC1` yielded a melting point of 138 to 139 °C.

On to `CCCC(=N)Nc1ccccc1N1CCOCC1`, for which the melting point was determined as 131 °C.

`CCOC(=O)CSc1cc(Cl)nc(Nc2cccc(C)c2C)n1` yielded a melting point of 114 to 116 °C.

Regarding `O=C(O)CCCc1cc(-c2ccccc2)nc2ccccc12`, the melting point amounted to 125 °C.

In turn, `CNc1nc(C)c(-c2ccnc(Nc3ccc(N4CCN(C(C)=O)CC4)cc3)n2)s1` returned a melting point of 213 to 214 °C.

Take `Cc1ccc(-c2cc3ccc4ccccc4c3o2)cc1`: the melting point lay in the range of 97 to 100 °C.

`CCc1oc2ccc(C)cc2c1C(=O)c1ccc(Cl)c(S(N)(=O)=O)c1` registered a melting point of 147 to 150 °C.

Turning to `CCOC(=O)NCC(CC)C(NC(=O)OCC)NC(=O)OCC` (centres undefined), the melting point lay within 120 to 122 °C.

Compound `Cn1c2c(ccc1=O)C(NCCc1ccc([N+](=O)[O-])cc1)CCC2` (centres undefined) yielded a melting point of 138 to 139 °C.

`Cc1onc(-c2ccccc2Cl)c1CCC(=O)O` yielded a melting point of 79 to 81 °C.

Source of the values: a melting point compilation (Tetko et al.; mined from patent text by program, amines drawn as free bases though some values may be those of a salt).
